Measured values: US10781211B2, “Spirocycle compounds and methods of making and using same” (Lundbeck La Jolla Research Center, Inc., priority 2016, dated 2020)

What was measured:
Assay type in all cases: in vivo
Settings in all cases: 5 mg/kg oral gavage
MAGL = MAGL (Mus musculus (Mouse), UniProt O35678); assay: Mouse brain proteomes from inhibitor treated mice (oral gavage, sacrifice 4 h after administration, ABPP analysis)
Description: (§1) Preparation of Mouse Brain Proteomes from Inhibitor Treated Mice.
(§2) Inhibitors were administered to wild-type C57Bl/6J by oral gavage in a vehicle, e.g. PEG400/Ethanol/PBS (7/2/1). Each animal was sacrificed 4 h following administration and brain proteomes were prepared and analyzed according to previously established methods (See Niphakis, M. J., et al. (2011) ACS Chem. Neurosci. and Long, J. Z., et al. Nat. Chem. Biol. 5:37-44). Data from this assay is shown in Table 2 (% inhibition at 5 mg/kg).

FAAH = FAAH (Mus musculus (Mouse), UniProt O08914); assay: Mouse brain proteomes from inhibitor treated mice (oral gavage, sacrifice 4 h after administration, ABPP analysis), FAAH
Description: as §1, §2

ABHD6 = ABHD6 (Mus musculus (Mouse), UniProt Q8R2Y0); assay: Mouse brain proteomes from inhibitor treated mice (oral gavage, sacrifice 4 h after administration, ABPP analysis), ABHD6
Description: as §1, §2

Sequence of MAGL (O35678 whole entry): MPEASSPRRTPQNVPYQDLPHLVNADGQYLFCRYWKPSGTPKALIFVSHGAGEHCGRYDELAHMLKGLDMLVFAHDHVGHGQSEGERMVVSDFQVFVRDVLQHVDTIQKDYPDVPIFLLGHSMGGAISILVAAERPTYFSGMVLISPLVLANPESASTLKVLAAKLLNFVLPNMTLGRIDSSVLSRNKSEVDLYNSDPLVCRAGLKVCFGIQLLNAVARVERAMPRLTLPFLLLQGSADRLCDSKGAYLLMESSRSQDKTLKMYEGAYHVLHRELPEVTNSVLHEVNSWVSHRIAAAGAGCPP
Sequence of FAAH (O08914 whole entry): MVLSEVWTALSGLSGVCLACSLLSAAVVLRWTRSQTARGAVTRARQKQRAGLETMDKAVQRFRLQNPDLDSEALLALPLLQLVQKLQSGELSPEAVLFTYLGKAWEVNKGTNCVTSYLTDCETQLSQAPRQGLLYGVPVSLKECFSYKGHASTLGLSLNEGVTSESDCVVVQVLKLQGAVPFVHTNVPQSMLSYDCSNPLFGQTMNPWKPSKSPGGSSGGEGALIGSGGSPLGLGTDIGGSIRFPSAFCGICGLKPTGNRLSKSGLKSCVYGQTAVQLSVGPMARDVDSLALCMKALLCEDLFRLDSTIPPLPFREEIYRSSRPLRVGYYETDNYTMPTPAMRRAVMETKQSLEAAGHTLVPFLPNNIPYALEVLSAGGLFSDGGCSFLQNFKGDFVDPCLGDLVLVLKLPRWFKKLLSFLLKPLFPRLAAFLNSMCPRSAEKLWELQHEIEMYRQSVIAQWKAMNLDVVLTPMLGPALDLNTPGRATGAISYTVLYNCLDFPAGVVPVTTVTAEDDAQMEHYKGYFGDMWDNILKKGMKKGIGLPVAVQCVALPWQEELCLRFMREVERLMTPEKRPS
Sequence of ABHD6 (Q8R2Y0 whole entry): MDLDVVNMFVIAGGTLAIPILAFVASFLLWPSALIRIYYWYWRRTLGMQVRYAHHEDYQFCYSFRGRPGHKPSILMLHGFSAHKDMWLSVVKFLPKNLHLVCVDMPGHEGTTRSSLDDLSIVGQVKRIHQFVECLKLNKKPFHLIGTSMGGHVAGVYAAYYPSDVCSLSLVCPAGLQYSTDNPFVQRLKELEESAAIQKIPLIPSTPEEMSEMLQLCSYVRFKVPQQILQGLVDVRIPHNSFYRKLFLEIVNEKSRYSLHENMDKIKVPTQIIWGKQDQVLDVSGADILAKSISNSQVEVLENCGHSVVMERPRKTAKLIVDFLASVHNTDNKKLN

SMILES | MAGL % Inh 5 mg/kg (mouse) (MAGL) | FAAH % Inh 5 mg/kg (mouse) (FAAH) | ABHD6 % Inh 5 mg/kg (mouse) (ABHD6)
O=C(OC(C(F)(F)F)C(F)(F)F)N1CCC2(CCCN2Cc2ccccc2Cl)CC1 [Example 60, 1,1,1,3,3,3-Hexafluoropropan-2-yl 1-(2-chlorobenzyl)-1,8-diazaspiro[4.5]decane-8-carboxylate] | ### (### is ≥ 75%) | – | # (# is < 25%)
O=C(OC(C(F)(F)F)C(F)(F)F)N1CCC2(CCCN2Cc2ccc(Cl)cc2N2CC3COCC3C2)CC1 (stereo not drawn) [Example 108, 1,1,1,3,3,3-Hexafluoropropan-2-yl 1-(4-chloro-2-(tetrahydro-1H-furo[3,4-c]pyrrol-5(3H)-yl)benzyl)-1,8-diazaspiro[4.5]decane-8-carboxylate] | ### (### is ≥ 75%) | # (# is < 25%) | # (# is < 25%)
O=C(OC(C(F)(F)F)C(F)(F)F)N1CCC2(CCCN2Cc2cc(N3CCS(=O)(=O)CC3)cc(C(F)(F)F)c2)CC1 [Example 42, 1,1,1,3,3,3-Hexafluoropropan-2-yl 1-(3-(1,1-dioxidothiomorpholino)-5-(trifluoromethyl)benzyl)-1,8-diazaspiro[4.5]decane-8-carboxylate] | ### (### is ≥ 75%) | # (# is < 25%) | # (# is < 25%)
COc1c(Cl)cccc1CN1CCCC12CCN(C(=O)OC(C(F)(F)F)C(F)(F)F)CC2 [Example 10, 1,1,1,3,3,3-Hexafluoropropan-2-yl 1-(3-chloro-2-methoxybenzyl)-1,8-diazaspiro[4.5]decane-8-carboxylate] | ### (### is ≥ 75%) | – | # (# is < 25%)
Cc1c(CN2CCCC23CCN(C(=O)OC(C(F)(F)F)C(F)(F)F)CC3)cccc1N1CC2CCC(C1)O2 [Example 86, 1,1,1,3,3,3-Hexafluoropropan-2-yl 1-(3-(8-oxa-3-azabicyclo[3.2.1]octan-3-yl)-2-methylbenzyl)-1,8-diazaspiro[4.5]decane-8-carboxylate] | ### (### is ≥ 75%) | # (# is < 25%) | # (# is < 25%)
O=C(OC(C(F)(F)F)C(F)(F)F)N1CCC2(CCCN2Cc2ccc(F)c(OCCF)c2)CC1 [Example 29, 1,1,1,3,3,3-Hexafluoropropan-2-yl 1-(4-fluoro-3-(2-fluoroethoxy)benzyl)-1,8-diazaspiro[4.5]decane-8-carboxylate] | ### (### is ≥ 75%) | – | ### (### is ≥ 75%)
O=C(OC(C(F)(F)F)C(F)(F)F)N1CCC2(CCCN2Cc2ccc(Cl)cc2N2CCC2)CC1 [Example 107, 1,1,1,3,3,3-Hexafluoropropan-2-yl 1-(2-(azetidin-1-yl)-4-chlorobenzyl)-1,8-diazaspiro[4.5]decane-8-carboxylate] | ### (### is ≥ 75%) | – | # (# is < 25%)
O=C(OC(C(F)(F)F)C(F)(F)F)N1CCC2(CCCN2Cc2cc(Cl)cc(N3CCOCC3)c2)CC1 [Example 33, 1,1,1,3,3,3-Hexafluoropropan-2-yl 1-(3-chloro-5-morpholinobenzyl)-1,8-diazaspiro[4.5]decane-8-carboxylate] | ### (### is ≥ 75%) | – | # (# is < 25%)
CC1(C)CC2(CCN(C(=O)OC(C(F)(F)F)C(F)(F)F)CC2)CN1Cc1ccc(Cl)cc1 [Example 48, 1,1,1,3,3,3-Hexafluoropropan-2-yl 2-(4-chlorobenzyl)-3,3-dimethyl-2,8-diazaspiro[4.5]decane-8-carboxylate] | ### (### is ≥ 75%) | # (# is < 25%) | –
O=C(OC(C(F)(F)F)C(F)(F)F)N1CCC2(CCCN2Cc2ccc(OCCF)cc2)CC1 [Example 31, 1,1,1,3,3,3-Hexafluoropropan-2-yl 1-(4-(2-fluoroethoxy)benzyl)-1,8-diazaspiro[4.5]decane-8-carboxylate] | ### (### is ≥ 75%) | # (# is < 25%) | –

Continued, values first:

MAGL % Inh 5 mg/kg (mouse) (MAGL) | FAAH % Inh 5 mg/kg (mouse) (FAAH) | ABHD6 % Inh 5 mg/kg (mouse) (ABHD6) | SMILES
### (### is ≥ 75%) | # (# is < 25%) | # (# is < 25%) | O=C(O)[C@H]1CCCN(c2cc(C(F)(F)F)ccc2CN2CCCC23CCN(C(=O)OC(C(F)(F)F)C(F)(F)F)CC3)C1 [Example 217]
### (### is ≥ 75%) | # (# is < 25%) | # (# is < 25%) | O=C(O)[C@H]1CCCCN1c1cc(CN2CCCC23CCN(C(=O)OC(C(F)(F)F)C(F)(F)F)CC3)cc(C(F)(F)F)c1 [Example 274]
### (### is ≥ 75%) | # (# is < 25%) | # (# is < 25%) | O=C(OC(C(F)(F)F)C(F)(F)F)N1CCC2(CCCN2Cc2ccc(N3CCCC3)c(Cl)c2)CC1 [Example 128, 1,1,1,3,3,3-Hexafluoropropan-2-yl 1-(3-chloro-4-(pyrrolidin-1-yl)benzyl)-1,8-diazaspiro[4.5]decane-8-carboxylate]
### (### is ≥ 75%) | # (# is < 25%) | # (# is < 25%) | O=C(OC(C(F)(F)F)C(F)(F)F)N1CCC2(CCCN2Cc2ccc(C(F)(F)F)c(N3CCCC3)c2)CC1 [Example 134, 1,1,1,3,3,3-Hexafluoropropan-2-yl 1-(3-(pyrrolidin-1-yl)-4-(trifluoromethyl)benzyl)-1,8-diazaspiro[4.5]decane-8-carboxylate]
### (### is ≥ 75%) | # (# is < 25%) | # (# is < 25%) | O=C(O)C1CCN(c2cc(F)cc(CN3CCCC34CCN(C(=O)OC(C(F)(F)F)C(F)(F)F)CC4)c2)CC1 [Example 236]
### (### is ≥ 75%) | # (# is < 25%) | # (# is < 25%) | O=C(O)C1CCN(c2cc(C(F)(F)F)ccc2CN2CCCC23CCN(C(=O)OC(C(F)(F)F)C(F)(F)F)CC3)CC1 [Example 121, 1-(2-((8-(((1,1,1,3,3,3-Hexafluoropropan-2-yl)oxy)carbonyl)-1,8-diazaspiro[4.5]decan-1-yl)methyl)-5-(trifluoromethyl)phenyl)piperidine-4-carboxylic acid]
### (### is ≥ 75%) | # (# is < 25%) | # (# is < 25%) | O=C(OC(C(F)(F)F)C(F)(F)F)N1CCC2(CCCN2Cc2ccc(N3CCCC3)c(C(F)(F)F)c2)CC1 [Example 130, 1,1,1,3,3,3-Hexafluoropropan-2-yl 1-(4-(pyrrolidin-1-yl)-3-(trifluoromethyl)benzyl)-1,8-diazaspiro[4.5]decane-8-carboxylate]
### (### is ≥ 75%) | – | # (# is < 25%) | O=C(O)c1cc(CN2CCCC23CCN(C(=O)OC(C(F)(F)F)C(F)(F)F)CC3)ccc1C(F)(F)F [Example 179, 5-((8-((1,1,1,3,3,3-Hexafluoropropan-2-yloxy)carbonyl)-1,8-diazaspiro[4.5]decan-1-yl)methyl)-2-(trifluoromethyl)benzoic acid]
### (### is ≥ 75%) | # (# is < 25%) | – | O=C(OC(C(F)(F)F)C(F)(F)F)N1CCC2(CCN(Cc3ccc(C(F)(F)F)c(N4CCCC4)c3)C2)CC1 [Example 157, 1,1,1,3,3,3-Hexafluoropropan-2-yl 2-(3-(pyrrolidin-1-yl)-4-(trifluoromethyl)benzyl)-2,8-diazaspiro[4.5]decane-8-carboxylate]
